Patent US8883714B2, “Pharmaceutical compositions comprising GPR119 agonists which act as peptide YY (PYY) secretagogues” (Arena Pharmaceuticals, Inc., priority 2008, dated 2014)

Columns and labels:
[1] = humans, cited from earlier work
human GPR119 receptor = target: T1, human GPR119 receptor (Homo sapiens, UniProt Q8TDV5); assay: cAMP assay (Flash Plate adenylyl cyclase kit) in GPR119-transfected HEK293 cells; assay type: cell-based; settings: GPR119-transfected HEK293 cells vs empty vector; 60 min at room temperature; FIG. 2
T1 construct: Full-Length Cloning of Endogenous Human GPR119; expressed in transfected cells; host or cells: HEK293 cells, transient transfection with Lipofectamine
T1 sequence (Q8TDV5 1-335): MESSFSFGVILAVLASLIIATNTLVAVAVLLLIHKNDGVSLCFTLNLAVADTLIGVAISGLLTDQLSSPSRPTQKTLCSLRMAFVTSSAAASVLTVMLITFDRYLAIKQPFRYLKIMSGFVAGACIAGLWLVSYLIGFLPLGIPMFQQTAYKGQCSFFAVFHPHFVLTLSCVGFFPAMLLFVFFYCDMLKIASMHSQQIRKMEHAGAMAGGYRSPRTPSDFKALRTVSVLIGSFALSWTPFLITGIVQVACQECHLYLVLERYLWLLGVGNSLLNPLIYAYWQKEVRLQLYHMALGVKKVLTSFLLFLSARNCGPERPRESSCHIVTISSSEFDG
Description: Briefly, HEK293 cells were transfected with either empty vector DNA (“Vector”) or human GPR119 receptor expression plasmid DNA (“GPR119”) using Lipofectamine (Invitrogen, Carlsbad, Calif.). After 24 h, transfected cells were harvested in GIBCO (Gaithersburg, Md.) cell dissociation buffer (Catalog no. 13151-014) and resuspended in assay buffer (50% 1×PBS/50% stimulation buffer). Compound 1 was incubated with 10^5 cells per well for 60 min at room temperature. After another 2-h incubation with tracer in detection buffer, plates were counted in a Wallac (Gaithersburg, Md.) MicroBeta scintillation counter. Values of cAMP per well were extrapolated from a standard cAMP curve that was included on each assay plate.

plasma total PYY [2] = assay: Effect of oral GPR119 agonist on plasma total PYY in wild-type littermates (paper example); assay type: in vivo, wild-type mice; settings: 20 mg/kg per orally; glucose bolus 3 g/kg; blood at 0 and 5 min
Description: (§1) GPR119-deficient male mice (Chu et al, Endocrinology (2007) 148:2601-2609) and wild-type littermates are fasted for 18 hours. Mice are administered per orally with vehicle (80% polyethylene glycol 400/10% ethanol/10% Tween 80) or with a GPR119 agonist in accordance with the present invention (Compound 1; (2-Fluoro-4-methanesulfonyl-phenyl)-{6-[4-(3-isopropyl-[1,2,4]oxadiazol-5-yl)-piperidin-1-yl]-5-nitro-pyrimidin-4-yl}-amine) at 20 mg/kg. Thirty minutes after treatment, blood (100 microliter) is collected via retro orbital vein of the eye (time 0 minutes) followed by a glucose bolus at 3 g/kg (per orally). Five minutes after delivering glucose, another blood sample (100 microliter) is collected (time 5 minutes). Plasma are collected after centrifugation and plasma total PYY levels are determined by using PYY EIA kit purchased from Phoenix Pharmaceuticals, Inc. (Peptide YY (PYY) (Rat, Mouse, Porcine, Canine) EIA kit, Catalog No. EK-059-03) according to instructions provided in the kit. It can be further shown that functional GPR119 receptor is necessary for the administered GPR119 agonist to increase plasma total PYY in the mice. […] Compound 1 is identical to a compound disclosed in International Patent Application No. PCT/US2004/001267 (published as WO 2004/065380).

plasma total PYY [3] = assay: Effect of oral GPR119 agonist on plasma total PYY in GPR119-deficient (knockout) mice (paper example); assay type: in vivo, GPR119-deficient male mice; settings: 20 mg/kg per orally; glucose bolus 3 g/kg; blood at 0 and 5 min
Description: as §1

plasma total PYY [4] = assay: Effect of oral GPR119 agonist on plasma total PYY in wild-type mice (PYY EIA kit); assay type: in vivo, C57BL/6 male mice; settings: 10 mg/kg per orally; fasted 18 h; glucose bolus 3 g/kg 30 min after treatment; blood at 0, 2, 5, 10 min; FIG. 3
Description: C57BL/6 male mice (approximately 8 weeks of age; obtained from Harlan, Indianapolis, Ind.) were fasted for 18 hours, and randomly assigned into eight groups with n=6 for each group. Mice were administered per orally with vehicle (80% polyethylene glycol 400/10% Tween 80/10% ethanol) or with a GPR119 agonist (Compound 1; (2-Fluoro-4-methanesulfonyl-phenyl)-{6-[4-(3-isopropyl-[1,2,4]oxadiazol-5-yl)-piperidin-1-yl]-5-nitro-pyrimidin-4-yl}-amine) at 10 mg/kg, as indicated in FIG. 3. Thirty minutes after treatment, a glucose bolus at 3 g/kg was delivered per orally, and blood was collected at 0 minute (no glucose bolus), 2 minutes, 5 minutes, and 10 minutes after glucose bolus. Plasma total PYY (inclusive of PYY1-36 and PYY3-36) levels were determined by using a PYY EIA kit purchased from Phoenix Pharmaceuticals, Inc. (Peptide YY (PYY) (Rat, Mouse, Porcine, Canine) EIA kit, Catalog No. EK-059-03) according to instructions provided in the kit. […] From the results shown in FIG. 3, it is apparent that the GPR119 agonist (Compound 1) stimulated plasma total PYY in the mice. Compound 1 is identical to a compound disclosed in International Patent Application No. PCT/US2004/001267 (published as WO 2004/065380).

Row | Compound | time of decline of serum PYY3-36 to basal levels ([1]; after infusion) [min] | time to peak serum levels of PYY3-36 ([1]; infusion to reach normal postprandial circulatory concentrations) [min] | reduction of food intake ([1]; infusion, over 24 hours) [%] | agonist activity at GPR119 receptor (stimulation of cAMP accumulation) (human GPR119 receptor) | effect on plasma total PYY in wild-type mice (plasma total PYY [2]) | effect on plasma total PYY in GPR119-deficient mice (plasma total PYY [3]) | effect on plasma total PYY (inclusive of PYY1-36 and PYY3-36) (plasma total PYY [4])
1 | PYY3-36: generated from PYY1-36 by cleavage of the N-terminal Tyr and Pro residues by dipeptidyl peptidase IV; high-affinity Y2R selective agonist | ≤ 30 | ≤ 15 | 33 | – | – | – | –
2 | CC(C)c1noc(C2CCN(c3ncnc(Nc4ccc(S(C)(=O)=O)cc4F)c3[N+](=O)[O-])CC2)n1 [Compound 1, (2-Fluoro-4-methanesulfonyl-phenyl)-{6-[4-(3-isopropyl-[1,2,4]oxadiazol-5-yl)-piperidin-1-yl]-5-nitro-pyrimidin-4-yl}-amine] | – | – | – | agonist of GPR119 receptor | stimulate plasma total PYY in the wild-type mice | not in the GPR119-deficient mice | increased plasma total PYY
